In brackets after ≈: the same amount, converted by molar mass. Like-named read-outs stand apart in the source and are kept apart here.
Columns and labels:
M. smegmatis (MC^2 155) = experiment: M. smegmatis primary screening, z-score; type: cell-based, Mycobacterium smegmatis; settings: positive controls in primary screening
[1] = test system: Mycobacterium smegmatis (mc^2155); experiment: Antimycobacterial assay, turbidometric MIC (OD 600 nm); type: cell-based; settings: Mycolicibacterium smegmatis, read-out: M. smeg MIC
M. tuberculosis (H37Rv) = M. tuberculosis (H37Rv) inhibition assay, Alamar Blue MIC; type: cell-based; settings: Mycobacterium tuberculosis, 168 h, six days + 24 h
[2] = test system: HepG2 (human hepatoma cells); experiment: Sulforhodamine B (SRB) cytotoxicity assay; type: cell-based; settings: 48 h
[3] = test system: A549 (human lung epithelial cells); experiment: Sulforhodamine B (SRB) cytotoxicity assay; type: cell-based; settings: 48 h
[4] = test system: Mycobacterium bovis (BCG); experiment: microbe, parasite or virus in culture; type: cell-based; settings: Mycobacterium tuberculosis variant bovis BCG, 96 h, read-out: BCG MIC
Mycobacterium = experiment: Minimum Bactericidal Concentration (MBC) test, CFU approach; type: cell-based; settings: for Bacteriocidal/Bacteriostatic: from comparison of MIC and MBC; for MBC compared with MIC: against the test organisms of the study
NCI-H460 = test system: NCI-H460; design: method as in PMID 18507473; settings: cited from earlier work
SF-264 = test system: SF-264; design: method as in PMID 18507473; settings: cited from earlier work
MCF-7 = test system: MCF-7; design: method as in PMID 18507473; settings: cited from earlier work
[5] = test system: Campylobacter fetus subsp. jejuni; settings: cited from earlier work
[6] = MC^2155, lowest concentration with 90% growth inhibition, 32 hours

| Compound | mean z-score (M. smegmatis (MC^2 155)) | MIC ([1]; MC^2155, 32 h) | MIC (M. tuberculosis (H37Rv)) | IC50 [2] | MIC [1, 6] | IC50 [3] | MIC [4] | Bacteriocidal/Bacteriostatic (Mycobacterium) | IC50 (NCI-H460) | IC50 (SF-264) | IC50 (MCF-7) | MBC compared with MIC (Mycobacterium) | MBC [5] | MIC [5] |
| --- | --- | --- | --- | --- | --- | --- | --- | --- | --- | --- | --- | --- | --- | --- |
| NNC(=O)c1ccncc1 [Isoniazid, reference compound] | 4.9 | 11 µM (≈ 1.51 µg/mL) | – | – | – | – | – | – | – | – | – | – | – | – |
| Cc1ccc(C)c(Cn2nnc3c(O)nc(C4CCCN(C(=O)c5ccc(C(C)(C)C)cc5)C4)nc32)c1 (stereo not shown) [Compound H126] | – | – | 12.5 µM | 357 µM | 30.6 µM (≈ 15.3 µg/mL) | 369 µM | 23.8 µM (≈ 11.9 µg/mL) | Bacteriostatic | – | – | – | – | – | – |
| O=C(CC1(O)c2ccccc2-n2c1nc1ccccc1c2=O)c1ccccc1 (stereo not shown) [Compound H26] | – | – | 0.4 µM | 417 µM | 53 µM (≈ 19.5 µg/mL) | 368 µM | 12 µM (≈ 4.44 µg/mL) | bactericidal activity | > 50 µM | > 50 µM | > 50 µM | MBC values equivalent to their MIC values | – | – |
| Cc1ccc(-c2nc3ccccc3s2)cc1 [Compound H117] | – | – | 12.5 µM | 408 µM | 26.8 µM (≈ 6.04 µg/mL) | 475 µM | 14.9 µM (≈ 3.36 µg/mL) | Bacteriostatic | – | – | – | – | – | – |
| CO[C@H]1/C=C/O[C@@]2(C)Oc3c(C)c(O)c4c(O)c(c(/C=N/N5CCN(C)CC5)c(O)c4c3C2=O)NC(=O)/C(C)=C\C=C\[C@H](C)[C@H](O)[C@@H](C)[C@@H](O)[C@@H](C)[C@H](OC(C)=O)[C@@H]1C [Rifampicin, reference compound] | 4.4 | 2.43 µM (≈ 2 µg/mL) | – | – | – | – | – | – | – | – | – | – | – | – |
| COc1cccc2c1C(=O)c1c(O)c3c(c(O)c1C2=O)C[C@@](O)(C(=O)CO)C[C@@H]3O[C@H]1C[C@H](N)[C@H](O)[C@H](C)O1 [Doxorubicin, reference compound] | – | – | – | 4.6 µM | – | 5.2 µM | – | – | – | – | – | – | – | – |
| COc1cc2c(cc1NC(=O)N1CCCCC1c1cccnc1)oc1ccccc12 (stereo not shown) [Compound H15] | – | – | 12.5 µM | 510 µM | 42 µM (≈ 16.9 µg/mL) | 526 µM | 12 µM (≈ 4.83 µg/mL) | Bacteriostatic | – | – | – | – | – | – |
| O=C(CSc1nnc2scc(-c3ccccc3)n12)Nc1ccc(N2CCCC2)cc1 [Compound H127] | – | – | 12.5 µM | 348 µM | 46.6 µM (≈ 20.3 µg/mL) | 411 µM | 14.2 µM (≈ 6.19 µg/mL) | Bacteriostatic | – | – | – | – | – | – |
| co-trimoxazole | – | – | – | – | – | – | – | – | – | – | – | – | 125 µg/mL | 31.2 µg/mL |
| Nc1ccc(C(=O)CSc2nnc3c(n2)CCCC3)cc1 [Compound H134] | – | – | 12.5 µM | 368 µM | 22.7 µM (≈ 6.82 µg/mL) | 424 µM | 10.9 µM (≈ 3.27 µg/mL) | Bacteriostatic | – | – | – | – | – | – |
| Cc1nc(C)c(C(=O)N(c2cccc(C)c2C)C(C(=O)NC2CCCCC2)c2ccccc2)s1 (stereo not shown) [Compound H85] | – | – | 12.5 µM | 790 µM | 25.1 µM (≈ 12 µg/mL) | 497 µM | 11.5 µM (≈ 5.47 µg/mL) | Bacteriostatic | – | – | – | – | – | – |
| N#Cc1ccc(C(=O)CC2(O)c3ccccc3-n3c2nc2ccccc2c3=O)cc1 (stereo not shown) [Compound H27] | – | – | 1.56 µM | 444 µM | 12.8 µM (≈ 5.05 µg/mL) | 902 µM | 6.58 µM (≈ 2.59 µg/mL) | Bacteriostatic | – | – | – | – | – | – |
| O=C(Cn1c(=O)n(Cc2ccc(F)cc2)c(=O)c2ccccc21)Nc1cc(F)ccc1F [Compound H137] | – | – | 12.5 µM | 390 µM | 39.2 µM (≈ 17.2 µg/mL) | 385 µM | 22.8 µM (≈ 10 µg/mL) | Bacteriostatic | – | – | – | – | – | – |
| Nc1ccc(C(=O)CC2(O)c3ccccc3-n3c2nc2ccccc2c3=O)cc1 (stereo not shown) [Compound H136] | – | – | 1.6 µM | 359 µM | 42.5 µM (≈ 16.3 µg/mL) | 321 µM | 11.4 µM (≈ 4.37 µg/mL) | bactericidal activity | – | – | – | MBC values equivalent to their MIC values | – | – |
| O=C(CSc1nnc(COc2ccc(F)cc2)o1)OC1CCCCC1 [Compound H43] | – | – | 6.28 µM | 373 µM | 52 µM (≈ 19 µg/mL) | 335 µM | 13.5 µM (≈ 4.96 µg/mL) | Bacteriostatic | – | – | – | – | – | – |
| CCSc1nsc(NC(=O)Nc2ccc(C(F)(F)F)cc2)n1 [Compound H94] | – | – | 6.25 µM | 599 µM | 25.4 µM (≈ 8.83 µg/mL) | 443 µM | 12.7 µM (≈ 4.42 µg/mL) | Bacteriostatic | – | – | – | – | – | – |
